Measured values from patent US8022043B2, “Ceramide derivatives as modulators of immunity and autoimmunity” (Albert Einstein College of Medicine of Yeshiva University, priority 2004, dated 2011).

Assays:
[1] = tested on: human NKT cell clones; assay: Human in vitro NKT cell assay system; assay type: cell-based; details: proliferative responses and cytokine secretion
Excerpt: For example, DB03-4 and DB03-5 are active in stimulation of human NKT cell clones in vitro, and elicits proliferative responses and cytokine secretion when evaluated using culture systems previously established in the literature (See, e.g., Spada F M, Sugita M, Watts G F M, Koezuka Y, and Porcelli S A. Low expression but potent antigen presenting function of CD1d on monocyte lineage cells, Eur. J. Immunol., 30:3468-3477 (2000), and Spada F M, Koezuka Y, Porcelli S A, CD1d-restricted recognition of synthetic glycolipid antigens by human NK T cells. J Exp Med; 188:1529-1534 (1998), see also, Lee P T et al., J Clin Invest., 2002 September; 110(6):793-800. […] Acad. Sci. (USA), 102:3383-8 (2005)).

[2] = tested on: C57BL/6 mice; assay: Serum IL-4 and IFNγ after a single i.p. injection; assay type: in vivo
Experimental: Serum levels of L-4 and IFNγ after a single injection of DB01-1, DB03-4, or DB03-5 are shown. C57BL/6 mice (11-13 weeks old) were given a single i.p. injection of 4.8 nanomoles of the compounds or phosphate buffered saline (PBS)/vehicle control. Serum cytokine levels were measured 2 and 20 hours later by capture ELISA. Bars show means of three mice, with standard deviation. Note that DB01-1 has nearly identical structure to KRN7000 (C24 fatty acid as compared to C26) and has activity that is indistinguishable from KRN7000 in multiple bioassays. We use DB01-1 as a “KRN7000 mimic” because it has been synthesized by our group and is readily available for our studies, and KRN7000 was unavailable due to license restrictions.
A most intriguing property of KRN7000 analogues is that in some cases they may elicit immune responses that are qualitatively different from those that occur following stimulation with the parent compound. […] This selective activation of IL-4 production by NK T cells was proposed to be the basis for the enhanced therapeutic effects of OCH in the EAE model of central nervous system autoimmune disease. We have observed a similar in vivo effect on the nature of the NK T cell response using several of our ceramide-like glycolipids. […] These responses are similar to those seen for DB01-1, an analogue that is structurally almost identical to KRN7000 (C24 fatty acid instead of C26, otherwise identical) and indistinguishable in terms of its activity in our hands. […] This selective IL-4 induction is virtually identical to that reported for the OCH analogue, and thus illustrates the potential for amino substituted analogues of KRN7000 to induce qualitatively different immunomodulatory effects in vivo. The results reported in FIG. 9 were obtained by measuring serum levels of IL-4 and IFNγ after administering a single injection of […], DB03-4, or DB03-5 to C57BL/6 mice. C57BL/6 mice (11-13 weeks old) were given a single i.p. injection of 4.8 nanomoles of the ceramide-like glycolipids or PBS/vehicle control. Serum cytokine levels were measured 2 and 20 hours later by capture ELISA. Bars show means of three mice, with standard deviation.
For experiments involving in vivo treatment of mice with the ceramide-like glycolipids, the ceramide-like glycolipids were administered by i.p. or i.v. injection in 0.2 ml PBS+0.025% Tween-20, or in vehicle alone. A typical dose is about 4-5 nmoles per animal per injection. Representative references for administering an α-galactosyl ceramide to mice by i.p., i.v. or p.o. routes are S. Sharif et al., Activation of natural killer T cells by alpha-galactosylceramide treatment prevents the onset and recurrence of autoimmune Type 1 diabetes, Nat. Med., Sep. 7, 2001, (9):1057-62 and K. Miyamoto et al., A synthetic glycolipid prevents autoimmune encephalomyelitis by inducing TH2 bias of natural killer T cells, Nature. Oct. 4, 2001, 413(6855):5314.

[3] = tested on: NOD mice; assay: Prevention of type 1 diabetes in NOD mice; assay type: in vivo; details: i.p. once per week, 200 micrograms/kg; comparator DB01-1 (indicated as KRN7000)
Experimental: Cohorts of 6-8 female NOD mice were treated with placebo (vehicle) or DB01-1 (indicated as KRN7000), DB03-4 or DB03-5 injections once weekly beginning at 4-5 weeks of age. Treatment was discontinued after 5 injections (DB03-4) or 7 injections (DB03-5). Top graphs show incidence of glycosuria, and bottom graphs show survival in each cohort.
Given the widely held belief that selective augmentation of IL-4 production can be protective or therapeutic in the setting of many autoimmune diseases, we have initiated studies to examine the efficacy of compounds such as DB03-4 and DB03-5 in diabetes prone NOD mice. […] The results reported in FIG. 10 were obtained by treating three groups, each consisting of 9-12 female NOD mice, starting from age 5 weeks with a ceramide-like glycolipid. The indicated ceramide-like glycolipids (DB03-4, DB03-5, or KRN7000) were injected i.p. once per week in a dose of 200 micrograms/kg. Treatment was discontinued at 11 weeks of age, and the mice were monitored weekly for glucosuria (top) and death (bottom).
For experiments involving in vivo treatment of mice with the ceramide-like glycolipids, the ceramide-like glycolipids were administered by i.p. or i.v. injection in 0.2 ml PBS+0.025% Tween-20, or in vehicle alone. A typical dose is about 4-5 nmoles per animal per injection. […]

[4] = tested on: T cell antigen receptors of human NKT cells; assay: Glycolipid human CD1d tetramer binding; details: normal blood specimens
[5] = tested on: iNKT cells; assay: In vitro cytokine modulation, murine cell assay system; assay type: cell-based; details: for in vitro activity at modulating cytokines: murine cell assay system
Excerpt: The term iNKT cells, as used herein, mean the specific subset of CD1d-dependent T cells that expresses the invariant TCRα chain rearrangement consisting of Vα14-Jα18 in mice, and Vα24-Jα18 in humans. These cells are uniformly reactive to α-galactosylceramides presented by CD1d. These cells are also referred to as “Type 1” NKT cells, and the distinction between the different types of NKT cells and the nomenclature relating to this are summarized in the publication by Godfrey et al., Nat Rev Immunol. 2004 March; 4(3):231-7. Methods for determining cytokine production by iNKT cells in response to CD1d-presented glycolipids for determination of strong or weak agonist activity are described in Yu K O A, Im J S, Molano A, Dutronc Y, Illarionov P A, Forestier C, Fujiwara N, Arias I, Miyake S, Yamamura T, Chang Y-T, Besra G S, Porcelli S A, Modulation of CD1d-restricted NKT cell responses using N-acyl variants of α-galactosylceramides, Proc. Nat. Acad. Sci. (USA), 102:3383-8 (2005), see also Godfrey D I et al., Nat Rev Immunol. 2004 March; 4(3):231-7.

[6] = tested on: NZB/W-F1 mice; assay: SLE in NZB/W-F1 mice; assay type: in vivo
[7] = tested on: NK T hybridoma DN3A4.1-2; assay: Upregulation of CD40L (CD154), FACS; assay type: cell-based, mouse; details: 0.5 uM glycolipid, 18 hours, RMA-S/CD1d cells
Experimental: The upregulation of CD40L by ceramide-like glycolipids reported in FIG. 11 were obtained by incubating NK T hybridoma DN3A4.1-2 with RMA-S/CD1d cells at a ratio of 2:1 in the presence of 0.5 uM of ceramide-like glycolipid for 18 hours. Cells were then resuspended and labeled with mAbs specific for CD5 and CD40L. Levels of CD40L were determined by FACS analysis of the population gated for CD5 staining.

[8] = tested on: NOD mice; details: twice weekly injection from 4 weeks of age, reduction from 75%; cited from earlier work
[9] = tested on: mice; details: administered in vivo to mice; cited from earlier work
[10] = tested on: mouse model of experimental allergic encephalomyelitis (EAE); details: compared with KRN7000; cited from earlier work
[11] = tested on: NK T hybridoma DN32.D3; assay: Murine NK T cell hybridoma stimulation assay (IL-2 release), JAWS II as APC; assay type: cell-based, mouse; details: dendritic cell line JAWS-II as antigen presenting cell
Experimental: (§1) The ability of the compounds to activate NK T cell hybridomas in the presence of various types of cells expressing CD1d reported in FIG. 5A was determined using a murine NK T cell hybridoma stimulation assay. CD1d-transfected RMA-S cells were plated at 50,000 cells/well in flat-bottom tissue culture plates in 100 microliters complete medium containing varying concentrations of ceramide-like glycolipids for 6 h at 37° C. The plates were then centrifuged (430 g, 3 min), and cells washed with PBS three times. Fifty thousand NKT hybridoma cells (clone DN3A4.1-2) were then added in 100 microliters of medium for a 12 h stimulation. Cell-free supernatants were collected at the end of incubation and assayed for IL-2 by standard capture ELISA. Relative potencies of the ceramide-like glycolipids were calculated from the reciprocal effective concentrations at half-maximal response (1/EC50), and expressed as units by normalization to the observed potency for KRN7000.
(§2) IL-2 production by NK T hybridoma DN32D3 in response to eight selected ceramide-like glycolipids, was determined using three different cell types as antigen presenting cells. RMA-S.mCD1d are a mouse lymphoma line that has been transfected to express murine CD1d. JAWS II is a mouse dendritic cell line that naturally expresses mouse CD1d. HeLa.hCD1d is a human cervical carcinoma cell line that has been transfected to express human CD1d. […]

[12] = tested on: NK T cells; assay: NK T cell activation screens (Example, FIG. 5 and Table 1); assay type: cell-based; details: see Example
Excerpt: Using these methods, we produced more than 60 novel amino substituted analogues of KRN7000. These were screened in a functional assay that assessed the ability of the compounds to activate NK T cell hybridomas in the presence of various types of cells expressing CD1d, or in the presence of recombinant CD1d proteins bound to the tissue culture plate surface (FIG. 5).

[13] = tested on: NK T hybridoma DN32.D3; assay: Murine NK T cell hybridoma stimulation assay (IL-2 release), HeLa.hCD1d as APC; assay type: cell-based, mouse; details: presented by HeLa (human CD1d) cells
Experimental: as §1, §2

[14] = tested on: NK T hybridoma DN32.D3; assay: Murine NK T cell hybridoma stimulation assay (IL-2 release), RMA-S.mCD1d as APC; assay type: cell-based, mouse; details: presented by RMA-S/CD1d cells
Experimental: FIG. 5. […] NK T hybridoma DN32.D3 was cultured with CD1d-transfected RMA-S cells in microtiter plate wells. Each ceramide-like glycolipid was titrated over a concentration range from 0.5-500 nM, and supernatants were harvested after 24 hours for measurement of IL-2 release. Units of activity were calculated as the reciprocal of the concentration of ceramide-like glycolipid required to give a half maximal release of IL-2, and all values were normalized to the activity of KRN7000 (defined as 1 Unit). The dotted line indicates the level of activity for KRN7000. The structures of two ceramide-like glycolipids with markedly elevated activity relative to KRN7000 are shown.
The ability of the compounds to activate NK T cell hybridomas in the presence of various types of cells expressing CD1d reported in FIG. 5A was determined using a murine NK T cell hybridoma stimulation assay. […] Relative potencies of the ceramide-like glycolipids were calculated from the reciprocal effective concentrations at half-maximal response (1/EC50), and expressed as units by normalization to the observed potency for KRN7000.
IL-2 production by NK T hybridoma DN32D3 in response to eight selected ceramide-like glycolipids, was determined using three different cell types as antigen presenting cells. […]

Structure (SMILES): CCCCC/C=C\C/C=C\C/C=C\C/C=C\CCCC(=O)N[C@@H](COC1OC(CO)C(O)C(O)C1O)[C@H](O)[C@H](O)CCCCCCCCCCCCCC (some centres unmarked) [DB03-5]
- stimulation of human NKT cell clones [1]: active
- serum IFNγ response ([2]; 20 hours after single i.p. injection of 4.8 nanomoles): not seen
- serum IL-4 response ([2]; two hours after single i.p. injection of 4.8 nanomoles): strong IL-4 response
- prevention of diabetes in NOD mice compared with KRN7000 [3]: superior to KRN7000
- binding of glycolipid human CD1d tetramers to human NKT cells [4]: bind strongly
- cytokine bias [5]: bias towards inducing Type 2 cytokines
- IL-4 induction ([5]; in vitro): strong inducers of IL-4
- IFNγ induction ([5]; in vitro, DB03-3: in some murine strains): blunted IFNγ
- in vitro activity at modulating cytokines [5]: show in vitro activity

Structure (SMILES): CCCCCCCCCCCCCCCCCCCCCCCC(=O)N[C@@H](CO[C@@H]1OC(C)[C@@H](O)[C@H](O)C1O)[C@H](O)[C@H](O)CCCCCCCCCCCCCC (some centres unmarked) [DB03-8]
- effect on SLE [6]: exacerbates SLE
- CD40L expression [7]: capable of inducing CD40L
- agonist activity on iNKT cells ([5]; in vitro): weak agonist
- in vitro activity at modulating cytokines [5]: show in vitro activity

Structure (SMILES): CCCCCCCCCCCCCCCCCCCCCCCCCC(=O)N[C@@H](CO[C@H]1O[C@H](CO)[C@H](O)[C@H](O)[C@H]1O)[C@H](O)[C@H](O)CCCCCCCCCCCCCC [KRN7000, (2S,3S,4R)-1-O-(α-D-galactopyranosyl)-N-hexacosanoyl-2-amino-1,3,4-octadecanetriol]
- incidence of diabetes [8]: approximately 5%

Structure (SMILES): CCCCCCCCCCCCCCCCCCCCCCCC(=O)N[C@@H](COC1OC(CO)C(O)C(O)C1O)[C@H](O)[C@H](O)CCCCC (some centres unmarked) [OCH]
- IFNγ production in vivo [9]: failed to stimulate the strong production of interferon-γ
- IL-4 production in vivo [9]: selective production of interleukin-4
- suppression of autoimmunity in EAE [10]: enhanced ability to suppress autoimmunity

Structure (SMILES): CCCCCCCCCCCCCC[C@@H](O)[C@@H](O)[C@H](COC1OC(CO)C(O)C(O)C1O)NC(=O)C(c1ccccc1)c1ccccc1 (some centres unmarked) [YTC03-17]
- response (IL-2 production) [11]: very little or no response at all
- effectiveness of compound [12]: Particularly effective
- potency relative to KRN7000 (IL-2 production) [13]: presented about equally
- potency relative to KRN7000 (IL-2 production) [14]: markedly more potent than KRN7000
- agonist activity on iNKT cells ([5]; in vitro): strong agonist activity
- in vitro activity at modulating cytokines [5]: show in vitro activity
